Type in all cases: biochemical
For one experiment, the target named is SIK2 (Homo sapiens (Human), UniProt Q9H0K1). Put plainly: Phosphorylation assay SIK2 (RapidFire mass spectrometry). The note with it: 0.5 nM SIK2, CHK-peptide, ATP, 30 min pre-incubation, 45 min incubation; read-out: SIK2 RF IC50. As for the experimental part:
(§1) In the presence of SIK2 (resp. SIK1 or SIK3) and ATP the CHK-peptide ([…] with C-terminal arginine amide modification) were phosphorylated at one of the four feasible serine's. Only one phosphorylation is observed under the assay conditions. 60 nl of each compound dilution series (12 point; dilution factor 3, generally 30 μM to 170 pM) in DMSO were transferred by acoustic dispensing to the assay plate and 30 minutes pre-incubated (ambient temperature) after the addition of 5 μl SIK1 (5 nM) resp. 5 μl SIK2 (0.5 nM) or 7 μl SIK3 (1.5 nM) in assay-buffer (12.5 mM HEPES (pH 7.0), 10 mM magnesium acetate, 0.005% BSA). 10 μM CHK-peptide solution and 5 μl of 100 μM ATP for SIK1 & SIK2 resp. 3 μl for SIK3 in assay-buffer were added and incubated ambient for 45 minutes. 40 μl of 0.125% formic acid in water were added to quench the reaction. RapidFire (RF) Mass Spectrometry was utilized for data generation as described below. The multiple charged species (3-5 charges) for the phosphorylated and non-phosphorylated form measured by MRM (Multiple Reaction Monitoring; API5000 or 6500+) or EIC (Extracted Ion Current; QToF) were summed up and the ratio calculated (sum phosphorylated species/sum all species) for data evaluation. Normalization was performed by Genedata software based on the non-inhibition control DMSO and the commercially available STK inhibitor @1 μM YKL-05-099 (CAS number 1936529-65-5). The results of the assay are expressed in half-maximal inhibitory concentrations (IC50s) and are summarized below in Table 1.
(§2) Samples were aspirated by vacuum for max. 600 ms and loaded to C4-cartridge (Agilent; #G9203A) for 3000 ms@1.5 ml/min with 0.1% formic acid in water. Afterwards samples were transferred to the API5000 (API6500+) or QToF mass spectrometer for 4000 ms@1.25 ml/min with 90% acetonitrile; 10% water; 0.007% TFA; 0.093 formic acid. The cartridge was reconditioned for additional 500 ms with 0.1% formic acid in water.
(§3) All MS analyses using the following MS-setup in MRM mode: Electrospray positive; Ion Spray Voltage: 4000V; Temperature: 550° C.; Collision Gas: 5; Curtain Gas: 15; Gas 1: 40; Gas 2: 42; EP: 10. DP=declustering potential; CE=collision energy; CXP=cell exit potential.
(§4) All MS analyses using the following MS-setup in Mode MS: Dual AJS Electrospray positive; VCap: 3000V; Drying & Sheath gas: 340° C.@81/min; Nebulizer: 60 psig; Nozzle Voltage: 2000V; Fragmentor: 130V; Skimmer: 35V; Oct1 RF Vpp: 700V; Ref masses on@5 spectra/s

A further experiment concerns the target SIK3 (Homo sapiens (Human), UniProt Q9Y2K2). Put plainly: Phosphorylation assay SIK3 (RapidFire mass spectrometry). The note with it: 1.5 nM SIK3, CHK-peptide, ATP, 30 min pre-incubation, 45 min incubation; read-out: SIK3 RF IC50. The protocol:
as §1, §2, §3, §4

The target of a further experiment is SIK1 (Homo sapiens (Human), UniProt P57059). Put plainly: Phosphorylation assay SIK1 (RapidFire mass spectrometry). The note with it: 5 nM SIK1, CHK-peptide, ATP, 30 min pre-incubation, 45 min incubation; read-out: SIK1 RF IC50. As for the experimental part:
as §1, §2, §3, §4

The term IC50 denotes the concentration that inhibits the measured activity by half.

Chain of SIK2 (Q9H0K1 whole entry): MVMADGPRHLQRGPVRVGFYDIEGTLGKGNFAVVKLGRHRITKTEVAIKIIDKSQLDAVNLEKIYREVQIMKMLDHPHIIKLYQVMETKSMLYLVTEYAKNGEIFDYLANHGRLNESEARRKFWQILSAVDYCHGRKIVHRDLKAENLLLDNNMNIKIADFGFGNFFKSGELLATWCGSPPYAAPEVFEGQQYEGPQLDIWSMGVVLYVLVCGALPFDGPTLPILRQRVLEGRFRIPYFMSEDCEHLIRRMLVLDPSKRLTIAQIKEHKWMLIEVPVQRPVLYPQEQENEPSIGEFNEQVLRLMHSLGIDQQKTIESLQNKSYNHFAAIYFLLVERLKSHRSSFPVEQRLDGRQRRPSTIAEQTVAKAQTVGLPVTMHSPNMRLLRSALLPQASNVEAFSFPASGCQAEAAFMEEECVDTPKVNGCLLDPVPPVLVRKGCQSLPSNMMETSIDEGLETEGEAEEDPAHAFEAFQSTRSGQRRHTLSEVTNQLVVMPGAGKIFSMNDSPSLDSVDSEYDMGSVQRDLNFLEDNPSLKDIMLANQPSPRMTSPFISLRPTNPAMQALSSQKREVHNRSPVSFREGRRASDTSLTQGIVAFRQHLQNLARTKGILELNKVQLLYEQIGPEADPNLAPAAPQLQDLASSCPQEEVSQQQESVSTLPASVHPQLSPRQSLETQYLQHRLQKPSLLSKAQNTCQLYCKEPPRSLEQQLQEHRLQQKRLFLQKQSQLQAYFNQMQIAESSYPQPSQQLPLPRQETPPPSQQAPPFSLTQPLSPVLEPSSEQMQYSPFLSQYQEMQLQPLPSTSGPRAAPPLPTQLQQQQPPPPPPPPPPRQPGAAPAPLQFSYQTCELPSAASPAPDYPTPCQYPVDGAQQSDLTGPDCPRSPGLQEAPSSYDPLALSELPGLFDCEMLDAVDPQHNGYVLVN
Chain of SIK3 (Q9Y2K2 whole entry): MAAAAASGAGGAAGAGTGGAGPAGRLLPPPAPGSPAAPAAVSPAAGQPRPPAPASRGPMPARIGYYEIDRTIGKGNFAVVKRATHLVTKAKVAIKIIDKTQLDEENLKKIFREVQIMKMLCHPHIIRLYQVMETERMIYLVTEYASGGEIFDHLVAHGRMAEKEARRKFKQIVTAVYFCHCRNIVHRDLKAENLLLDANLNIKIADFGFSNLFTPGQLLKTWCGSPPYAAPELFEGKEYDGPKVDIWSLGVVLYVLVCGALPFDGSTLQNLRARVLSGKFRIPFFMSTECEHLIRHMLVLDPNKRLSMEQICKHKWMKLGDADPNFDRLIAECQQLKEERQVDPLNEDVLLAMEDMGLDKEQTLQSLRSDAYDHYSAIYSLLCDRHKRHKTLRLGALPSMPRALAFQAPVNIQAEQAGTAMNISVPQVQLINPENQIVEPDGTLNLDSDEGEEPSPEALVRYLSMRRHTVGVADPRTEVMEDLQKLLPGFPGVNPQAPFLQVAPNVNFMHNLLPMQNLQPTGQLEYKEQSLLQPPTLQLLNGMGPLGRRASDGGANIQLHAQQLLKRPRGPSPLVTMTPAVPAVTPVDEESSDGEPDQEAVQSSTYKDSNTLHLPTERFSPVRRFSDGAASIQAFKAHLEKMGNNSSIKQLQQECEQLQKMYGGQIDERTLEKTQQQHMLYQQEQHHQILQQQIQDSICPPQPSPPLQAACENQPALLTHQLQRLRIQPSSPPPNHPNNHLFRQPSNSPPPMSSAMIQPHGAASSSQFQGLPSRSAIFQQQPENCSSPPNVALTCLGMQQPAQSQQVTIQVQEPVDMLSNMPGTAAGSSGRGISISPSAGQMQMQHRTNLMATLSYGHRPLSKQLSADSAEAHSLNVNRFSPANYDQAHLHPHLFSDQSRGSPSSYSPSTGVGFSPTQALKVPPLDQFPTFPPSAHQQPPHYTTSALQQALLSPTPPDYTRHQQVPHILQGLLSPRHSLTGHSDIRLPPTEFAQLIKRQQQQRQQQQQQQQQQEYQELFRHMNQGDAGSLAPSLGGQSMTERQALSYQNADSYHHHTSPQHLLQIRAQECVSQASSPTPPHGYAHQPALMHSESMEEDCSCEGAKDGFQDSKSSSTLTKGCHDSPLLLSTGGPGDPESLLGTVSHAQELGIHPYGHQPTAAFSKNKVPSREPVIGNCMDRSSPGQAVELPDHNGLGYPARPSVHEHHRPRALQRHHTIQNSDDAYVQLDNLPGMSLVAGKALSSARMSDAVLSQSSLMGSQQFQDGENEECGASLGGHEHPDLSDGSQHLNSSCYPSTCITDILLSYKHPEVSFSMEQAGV
Chain of SIK1 (P57059 whole entry): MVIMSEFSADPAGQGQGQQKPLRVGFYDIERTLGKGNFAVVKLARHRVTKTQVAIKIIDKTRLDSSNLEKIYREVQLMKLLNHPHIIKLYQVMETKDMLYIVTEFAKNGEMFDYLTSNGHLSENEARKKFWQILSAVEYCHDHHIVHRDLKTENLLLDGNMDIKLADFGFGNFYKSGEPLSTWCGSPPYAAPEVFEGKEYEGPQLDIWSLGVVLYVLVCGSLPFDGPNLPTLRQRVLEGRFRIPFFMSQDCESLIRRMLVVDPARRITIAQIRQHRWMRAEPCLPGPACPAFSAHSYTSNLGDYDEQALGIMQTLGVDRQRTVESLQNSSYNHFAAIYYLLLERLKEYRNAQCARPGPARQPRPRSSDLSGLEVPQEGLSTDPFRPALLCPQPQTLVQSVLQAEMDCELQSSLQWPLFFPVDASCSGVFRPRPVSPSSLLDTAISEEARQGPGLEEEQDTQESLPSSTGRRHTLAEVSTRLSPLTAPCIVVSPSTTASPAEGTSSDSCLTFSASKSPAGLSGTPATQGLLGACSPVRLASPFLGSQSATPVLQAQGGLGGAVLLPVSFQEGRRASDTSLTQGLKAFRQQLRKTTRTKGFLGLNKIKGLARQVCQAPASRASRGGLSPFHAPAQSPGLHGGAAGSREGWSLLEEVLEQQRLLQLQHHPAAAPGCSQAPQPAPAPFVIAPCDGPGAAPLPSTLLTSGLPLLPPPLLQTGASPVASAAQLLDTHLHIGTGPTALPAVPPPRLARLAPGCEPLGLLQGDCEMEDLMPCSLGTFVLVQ

With `CC(=O)c1ccc(-n2cnc3cc(N4CCOc5cc(C)nnc54)ncc32)nc1-n1nc(C#N)cc1C` [Example 6, 1-[3-Acetyl-6-[6-(3-methyl-6,7-dihydropyridazino[4,3-b][1,4]oxazin-8-yl)imidazo[4,5-c]pyridin-3-yl]-2-pyridyl]-5-methyl-pyrazole-3-carbonitrile], the IC50 worked out at 2.54 µM on SIK2, 3.29 µM on SIK3 and 17.4 µM on SIK1.

Turning to `Cc1ccc(Nc2cc3ncn(-c4ccc(C(C)O)c(-n5nc(C#N)cc5C)n4)c3cn2)nn1` (stereo not drawn) [Example 2, 1-[3-(1-Hydroxyethyl)-6-[6-[(6-methylpyridazin-3-yl)amino]imidazo[4,5-c]pyridin-3-yl]-2-pyridyl]-5-methyl-pyrazole-3-carbonitrile], the figures for the IC50 on SIK2, on SIK3 and at SIK1 were 0.005 µM, 0.003 µM and 0.366 µM, respectively.

For the molecule `CC(=O)c1ccc(-n2cnc3cc(Nc4ccc(C)nn4)ncc32)nc1-n1nc(C#N)cc1C` [Example 1, 1-[3-Acetyl-6-[6-[(6-methylpyridazin-3-yl)amino]imidazo[4,5-c]pyridin-3-yl]-2-pyridyl]-5-methyl-pyrazole-3-carbonitrile], the values for the IC50 on SIK2, on SIK3 and on SIK1 were 0.042 µM, 0.121 µM and 4.52 µM, respectively.

On to `Cc1ccc(Nc2cc3ncn(-c4ccc(C(C)O)c(-n5nc(C(F)F)cc5C)n4)c3cn2)nn1` (stereo not drawn) [Example 7, 1-[2-[3-(difluoromethyl)-5-methyl-pyrazol-1-yl]-6-[6-[(6-methylpyridazin-3-yl)amino]imidazo[4,5-c]pyridin-3-yl]-3-pyridyl]ethanol], for which the concentration for half-maximal inhibition (IC50) at SIK2 stood at 0.016 µM; at SIK3, 0.007 µM; at SIK1, 0.879 µM.

Regarding `Cc1ccc(Nc2cc3ncn(-c4ccc(C(C)O)c(-c5cn(CC(F)(F)F)nc5C)n4)c3cn2)nn1` (stereo not drawn) [Example 4, 1-[6-[6-[(6-Methylpyridazin-3-yl)amino]imidazo[4,5-c]pyridin-3-yl]-2-[3-methyl-1-(2,2,2-trifluoroethyl)pyrazol-4-yl]-3-pyridyl]ethanol], the IC50 on SIK2 worked out at 0.003 µM; at SIK3, 0.003 µM; on SIK1 it was 0.396 µM.

Turning to `Cc1ccc(Nc2cc3ncn(-c4ccc(C(C)O)c(-n5nc(C#N)cc5C)n4)c3cn2)cn1` (stereo not drawn) [Example 3, 1-[3-(1-Hydroxyethyl)-6-[6-[(6-methyl-3-pyridyl)amino]imidazo[4,5-c]pyridin-3-yl]-2-pyridyl]-5-methyl-pyrazole-3-carbonitrile], the IC50 on SIK2 came out at 0.022 µM; at SIK3 it was 0.022 µM; on SIK1 it was 0.078 µM.

The values are drawn from patent US20250115607A1, “PYRIDINE DERIVATIVES” (Hoffmann-La Roche Inc., priority 2022, published 2025).
